Assay results published in patent US7812162B2, “Enantiomers of 2′-fluoralkyl-6-nitroquipazine as serotonin transporter positron emission tomography imaging agents and antidepressant therapeutics” (The University of Montana, priority 2006, dated 2010).
Read-outs that look alike come from different tables or passages of the source.

Assays:
SERT [1] = target: T1, SERT (Rattus norvegicus, UniProt P31652); details: Rat brain, [3H]paroxetine; SERT competitive binding; cited from earlier work
[2] = target: T2, rat frontal cortical SERT, rSERT (Rattus norvegicus, UniProt P31652); experiment: Competition binding assay, rat frontal cortical SERT, [3H]Paroxetine; details: Competitive binding, rat brain cortex homogenate, 20° C., n = 3, mean±s.e.m.
T2 construct: rat frontal cortical SERT, rSERT; from tissue; host or cells: rat frontal cortex
Description: The compounds of the invention are potent (sub-nanomolar concentration) pharmacological inhibitor binding ligands of the serotonin transporter. Examples of the in vitro inhibition competitive pharmacological binding SERT potencies are shown in Table 3, where the binding constant Ki values are reported as mean±s.e.m., n=3 or greater. The binding constants were determined using an established competition assay (rat frontal cortical SERT, rSERT; [^3H]Paroxetine, 3 h incubation time at 20° C., nonspecific binding determined as the difference in the absence and presence of saturating levels of non-radioactive 6-nitroquipazine) [Gerdes 2000] which is a modified method of Habert [Habert 1985]. […] The ligands of the invention are considered to have antidepressant qualities since they effectively compete with the radiolabelled form of the known antidepressant Paroxetine ([^3H]Paroxetine) at the serotonin transporter [Tatsumi 1997, Hyttel 1994].

SERT [3] = target: T1, SERT; details: Rat brain, [3H]citalopram; SERT competitive binding; cited from earlier work
[4] = target: T3, human serotonin transporter (hSERT) (Homo sapiens, UniProt P31645); experiment: Inhibition of [3H]5-HT uptake into HEK-293 cells transfected with hSERT; type: cell-based; details: hSERT HEK-293 cells, 20° C.
T3 construct: expressed in transfected cells; host or cells: HEK-293
T3 sequence (P31645 whole entry): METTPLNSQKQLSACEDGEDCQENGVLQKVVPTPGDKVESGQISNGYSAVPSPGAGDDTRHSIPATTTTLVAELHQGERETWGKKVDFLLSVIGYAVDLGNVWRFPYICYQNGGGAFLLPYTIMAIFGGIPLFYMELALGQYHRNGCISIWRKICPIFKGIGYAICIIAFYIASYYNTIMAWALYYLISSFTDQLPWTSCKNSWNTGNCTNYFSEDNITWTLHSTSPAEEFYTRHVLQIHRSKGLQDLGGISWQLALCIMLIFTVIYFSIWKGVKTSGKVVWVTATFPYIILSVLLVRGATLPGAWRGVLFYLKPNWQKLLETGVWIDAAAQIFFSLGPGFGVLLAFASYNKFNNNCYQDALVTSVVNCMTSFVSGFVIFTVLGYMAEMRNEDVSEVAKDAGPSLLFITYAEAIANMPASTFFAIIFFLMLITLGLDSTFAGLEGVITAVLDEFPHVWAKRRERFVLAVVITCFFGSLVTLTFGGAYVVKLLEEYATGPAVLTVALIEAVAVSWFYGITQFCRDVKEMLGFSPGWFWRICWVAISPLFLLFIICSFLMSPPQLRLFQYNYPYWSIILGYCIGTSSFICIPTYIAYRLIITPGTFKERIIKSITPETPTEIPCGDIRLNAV

T1 sequence (P31652 whole entry): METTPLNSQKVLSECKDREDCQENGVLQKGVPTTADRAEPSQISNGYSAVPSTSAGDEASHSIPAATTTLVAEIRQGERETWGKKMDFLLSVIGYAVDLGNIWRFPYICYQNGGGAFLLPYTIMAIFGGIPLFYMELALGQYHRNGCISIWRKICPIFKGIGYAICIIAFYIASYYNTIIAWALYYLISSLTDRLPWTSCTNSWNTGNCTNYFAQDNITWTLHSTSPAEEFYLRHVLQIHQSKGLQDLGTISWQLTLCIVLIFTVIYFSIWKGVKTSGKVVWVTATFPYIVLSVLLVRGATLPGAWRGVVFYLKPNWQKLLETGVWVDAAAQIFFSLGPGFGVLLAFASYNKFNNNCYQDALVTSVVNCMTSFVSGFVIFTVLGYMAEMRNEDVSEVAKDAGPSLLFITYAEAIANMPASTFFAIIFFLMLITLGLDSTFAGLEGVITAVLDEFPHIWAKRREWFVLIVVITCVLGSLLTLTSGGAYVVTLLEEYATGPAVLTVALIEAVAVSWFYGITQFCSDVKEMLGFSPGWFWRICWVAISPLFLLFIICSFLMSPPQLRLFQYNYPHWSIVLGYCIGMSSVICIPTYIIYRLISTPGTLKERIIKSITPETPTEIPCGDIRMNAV
T2 sequence (P31652 whole entry): as above

Row | Structure (SMILES) | Ki (SERT [1]) | Ki [2] | also measured
1 | O=[N+]([O-])c1ccc2nc(N3CCNCC3)ccc2c1F [Cpd 8] | 0.25 nM | – | –
2 | O=[N+]([O-])c1ccc2nc(N3CCNC[C@H]3COCCCF)ccc2c1 [Cpd 2S] | – | 1.56 ± 0.88 nM | –
3 | O=[N+]([O-])c1ccc2nc(N3CCNC[C@@H]3COCCCF)ccc2c1 [Cpd 2R] | – | 0.25 ± 0.08 nM | –
4 | O=[N+]([O-])c1ccc2nc(N3CCNCC3)c(CCCF)cc2c1 [Cpd 10] | – | – | Ki (SERT [3]): 0.31 nM
5 | COC[C@@H]1CNCCN1c1ccc2cc([N+](=O)[O-])ccc2n1 [Cpd 13S, (S)-(−)-2-[2-(Methoxymethyl)piperazin-1-yl]-6-nitroquinolin] | – | 1.52 ± 0.1 nM | Ki [4]: 1.66 nM
6 | O=[N+]([O-])c1ccc2nc(N3CCNCC3)ccc2c1 [Cpd 5] | 0.16 nM | – | –
7 | O=[N+]([O-])c1ccc2nc(N3CCNCC3CO)ccc2c1 (racemic) [Cpd 14] | – | 0.68 ± 0.04 nM | –
8 | CC1CNCCN1c1ccc2cc([N+](=O)[O-])ccc2n1 (stereo not drawn) [Cpd 12] | 0.08 nM | – | –
9 | COCC1CNCCN1c1ccc2cc([N+](=O)[O-])ccc2n1 (racemic) [Cpd 13] | – | 0.42 ± 0.01 nM | Ki [4]: 0.47 nM
10 | O=[N+]([O-])c1ccc2nc(N3CCNCC3)ccc2c1I [Cpd 6] | 0.17 nM | – | –
11 | COC[C@H]1CNCCN1c1ccc2cc([N+](=O)[O-])ccc2n1 [Cpd 13R] | – | 0.25 ± 0.03 nM | Ki [4]: 0.15 nM
12 | O=[N+]([O-])c1ccc2nc(N3CCNCC3COCCCF)ccc2c1 (racemic) [Cpd 2, 2-[2-((3-Fluoropropoxy)methyl)piperazine-1-yl]-6-nitroquinoline] | – | 0.28 ± 0.09 nM | –
